Experiments:
[1] = tested on: cortisone conversion to cortisol (11β-HSD1); assay: Acute In Vivo Cortisone Conversion Assay; parameters: species or system male C57BL/6 mice; conditions: mice, oral dose 10 mg/kg, cortisone challenge s.c. 30 mg/kg, 16 hours post compound dose, serum cortisol
Procedure: Acute In Vivo Cortisone Conversion Assay
In general, compounds are dosed orally into mice, the mice are challenged with a subcutaneous injection of cortisone at a set timepoint after compound injection, and the blood of each animal is collected some time later. Separated serum is then isolated and analyzed for levels of cortisone and cortisol by LC-MS/MS, followed by calculation of mean cortisol and percent inhibition of each dosing group. Specifically, male C57BL/6 mice are obtained from Harlan Sprague Dawley at average weight of 25 grams. Exact weights are taken upon arrival and the mice randomized into groups of similar weights. Compounds are prepared in 1% w-w HEC, 0.25% w-w polysorbate 80, 0.05% w-w Dow Corning antifoam #1510-US at various doses based on assumed average weight of 25 grams. Compounds are dosed orally, 200 μl per animal, followed by a subcutaneous dose, 200 μl per animal, of 30 mg/kg cortisone at 1 to 24 hours post compound dose. At 10 minutes post cortisone challenge, each animal is euthanized for 1 minute in a CO2 chamber, followed by blood collection via cardiac puncture into serum separator tubes. Once fully clotted, tubes are spun at 2500×g, 4° C. for 15 minutes, the serum transferred to wells of 96-well plates (Corning Inc, Costar #4410, cluster tubes, 1.2 ml, polypropylene), and the plates are frozen at −20° C. until analysis by LC-MS/MS. […]

[2] = target: T1, 11β-HSD1 in primary human aortic smooth muscle cells (AoSMC) (Homo sapiens, UniProt P28845); assay: Human Aortic Smooth Muscle Cell Assay (cortisone to cortisol conversion); assay type: cell-based; conditions: AoSMC induced with hTNFα; cortisol measured after 16 hours with cortisone
T1 construct: containing 12 ng/mL hTNFα to induce expression of 11β-HSD1; endogenous in cells; host or cells: primary human aortic smooth muscle cells (AoSMC), induced with hTNFα
T1 sequence (P28845 whole entry): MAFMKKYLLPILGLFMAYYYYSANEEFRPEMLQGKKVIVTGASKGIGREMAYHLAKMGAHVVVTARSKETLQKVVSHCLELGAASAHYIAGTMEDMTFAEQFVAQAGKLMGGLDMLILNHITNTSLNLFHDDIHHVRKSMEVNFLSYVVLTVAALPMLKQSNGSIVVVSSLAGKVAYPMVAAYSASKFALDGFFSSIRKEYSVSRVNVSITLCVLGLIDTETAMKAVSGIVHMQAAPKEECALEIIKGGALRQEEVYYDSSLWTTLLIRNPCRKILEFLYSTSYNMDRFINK
Procedure: Human Aortic Smooth Muscle Cell Assay
Primary human aortic smooth muscle cells (AoSMC) are cultured in 5% FBS growth medium to a passage number of 6, then pelleted by centrifugation and resuspended at a density of 9×10^4 cells/mL in 0.5% FBS assay medium containing 12 ng/mL hTNFα to induce expression of 11β-HSD1. Cells are seeded into 96-well tissue culture assay plates at 100 μL/well (9×10^3 cells/well) and incubated for 48 hours at 37° C., 5% CO2. Following induction, cells are incubated for 4 hours at 37° C., 5% CO2 in assay medium containing test compounds then treated with 10 μL/well of 10 μM cortisone solubilized in assay medium, and incubated for 16 hours at 37° C., 5% CO2. Medium from each well is transferred to a plate for subsequent analysis of cortisol using a competitive fluorescence resonance time resolved immunoassay. […] Higher levels of free cortisol result in diminishing energy transfer from the Europium-IgG to the APC-cortisol complex resulting in less APC fluorescence. Fluorescent intensities for Europium and APC are measured using a LJL Analyst AD. Europium and APC […] is measured using 360 nm excitation and 615 nm and 650 nm emission filters respectively. […] Fluorescent intensities measured for APC are modified by dividing by the Eu fluorescence (APC/Eu). […]

[3] = target: recombinant human 11β-HSD type 1 enzyme (Homo sapiens, UniProt P28845); assay: 11β-HSD Type 1 Enzyme Assay (NADPH fluorescence); assay type: biochemical; conditions: three hour incubation at room temperature, read-out: Human 11-βHSD1 IC50
Chain of recombinant human 11β-HSD type 1 enzyme (P28845 whole entry): as above
Procedure: 11β-HSD Type 1 Enzyme Assay
Human 11β-HSD type 1 activity is measured by assaying NADPH production by fluorescence assay. Solid compounds are dissolved in DMSO to a concentration of 10 mM. Twenty microliters of each are then transferred to a column of a 96-well polypropylene Nunc plate where they are further diluted 50-fold followed by subsequent two-fold titration, ten times across the plate with additional DMSO using a Tecan Genesis 200 automated system. Plates are then transferred to a Tecan Freedom 200 system with an attached Tecan Temo 96-well head and an Ultra 384 plate reader. Reagents are supplied in 96-well polypropylene Nunc plates and are dispensed individually into black 96-well Molecular Devices High Efficiency assay plates (40 μL/well capacity) in the following fashion: 9 μL/well of substrate (2.22 mM NADP, 55.5 μM Cortisol, 10 mM Tris, 0.25% Prionex, 0.1% Triton X100), 3 μL/well of water to compound wells or 3 μL to control and standard wells, 6 μL/well recombinant human 11β-HSD type 1 enzyme, 2 μL/well of compound dilutions. For ultimate calculation of percent inhibition, a series of wells are added that represent assay minimum and maximum: one set containing substrate with 667 μM carbenoxolone (background), and another set containing substrate and enzyme without compound (maximum signal). Final DMSO concentration is 0.5% for all compounds, controls and standards. Plates are then placed on a shaker by the robotic arm of the Tecan for 15 seconds before being covered and stacked for a three hour incubation period at room temperature. Upon completion of this incubation, the Tecan robotic arm removes each plate individually from the stacker and places them in position for addition of 5 μL/well of a 250 μM carbenoxolone solution to stop the enzymatic reaction. Plates are then shaken once more for 15 seconds then placed into an Ultra 384 microplate reader (355EX/460EM) for detection of NADPH fluorescence.

SMILES | % Inhibition after 16 hours (dose of 10 (mg/kg)) [1] | IC50 [2] | IC50 [3]
O=C(c1ccc(-c2cc(Cl)c(C[C@@H]3CCN(C4CCC(F)(F)CC4)C3=O)c(Cl)c2)cc1)N1CCC(C(F)(F)F)CC1 [Example 3, (R)-3-[3,5-Dichloro-4′-(4-trifluoromethyl-piperidine-1-carbonyl)-biphenyl-4-ylmethyl]-1-(4,4-difluoro-cyclohexyl)-pyrrolidin-2-one] | 60.7% | 55.1 nM | 686 nM
O=C(c1ccc(-c2cc(Cl)c(C[C@@H]3CCN(C4CCC(F)(F)CC4)C3=O)c(Cl)c2)cc1)N1CCS(=O)(=O)CC1 [Example 4, (R)-3-[3,5-Dichloro-4′-(1,1-dioxo-1lamda*6*-thiomorpholine-4-carbonyl)-biphenyl-4-ylmethyl]-1-(4,4-difluoro-cyclohexyl)-pyrrolidin-2-one] | 50.2% |  | 382 nM
O=C(c1ccc(-c2cc(Cl)c(C[C@@H]3CCN([C@H]4CC[C@@H](F)CC4)C3=O)c(Cl)c2)cc1)N1CCC(C(F)(F)F)CC1 [Example 9, (R)-3-[3,5-Dichloro-4′-(4-trifluoromethyl-piperidine-1-carbonyl)-biphenyl-4-ylmethyl]-cis-1-(4-fluoro-cyclohexyl)-pyrrolidin-2-one] |  | 5.5 nM | 584 nM
